Laboratory results: patent publication US20250228239A1, “MOLECULES HAVING PESTICIDAL UTILITY, AND INTERMEDIATES, COMPOSITIONS, AND PROCESSES, RELATED THERETO” (priority 2024, published 2025)

Columns and labels:
[1] = test system: Beet Armyworm (Spodoptera exigua, LAPHEG); test: Bioassays on Beet Armyworm (BAW), 128-well diet tray assay; assay type: in vivo; conditions: Spodoptera exigua; Beet Armyworm; rating class; read-out: BAW
Outline: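 Larvae at second instar are exposed on dried, compound-treated diet (50 μg/cm^2, delivered in 90:10 acetone-water) in eight replicate wells. After five to seven days at 25° C., 14:10 light-dark, percent mortality in each well is scored and the eight wells averaged.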

[2] = test system: Cabbage Looper (Trichoplusia ni, TRIPNI); test: Bioassays on Cabbage Looper (CL), 128-well diet tray assay; assay type: in vivo; conditions: Trichoplusia ni; Cabbage Looper; rating class; read-out: CL
Outline: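 Diet tray, 2nd instar, 1–5 larvae/well; 50 μg/cm^2 compound surface-applied (acetone:water 90:10), dried; 8 wells/treatment; 25° C, 14:10 L:D, 5–7 d; % mortality, mean of 8 wells.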

Compound | pest or weed control at 50 µg/cm2 [1] [%] | pest or weed control at 50 µg/cm2 [2] [%]
CC(=O)Nc1c(F)ccc(NC(=O)c2cc(NC(=O)[C@H]3[C@H](c4cc(Cl)c(Cl)c(Cl)c4)C3(Cl)Cl)cc(C)c2Cl)c1F [F1544, N-(3-Acetamido-2,4-difluorophenyl)-2-chloro-5-((1R,3R)-2,2-dichloro-3-(3,4,5-trichlorophenyl)cyclopropane-1-carboxamido)-3-methylbenzamide] | 50 to 100 | 50 to 100
CC(=O)Nc1c(F)ccc(NC(=O)c2cc(NC(=O)[C@H]3[C@H](c4ccc(F)c(C(F)(F)F)c4)C3(Cl)Cl)cc(C)c2Cl)c1F [F1545, N-(3-acetamido-2,4-difluorophenyl)-2-chloro-5-((1R,3R)-2,2-dichloro-3-(4-fluoro-3-(trifluoromethyl)phenyl)cyclopropane-1-carboxamido)-3-methylbenzamide] | 50 to 100 | 50 to 100
CC(=O)Nc1cc(NC(=O)c2cc(NC(=O)[C@H]3[C@H](c4ccc(Cl)c(Cl)c4)C3(Cl)Cl)cc(C)c2Cl)c(F)cc1F [F1546, N-(5-Acetamido-2,4-difluorophenyl)-2-chloro-5-((1R,3R)-2,2-dichloro-3-(3,4-dichlorophenyl)cyclopropane-1-carboxamido)-3-methylbenzamide] | 50 to 100 | 50 to 100
CC(=O)Nc1cc(NC(=O)c2cc(NC(=O)[C@H]3[C@H](c4cc(Cl)c(Cl)c(Cl)c4)C3(Cl)Cl)cc(C)c2Cl)c(F)cc1F [F1547] | 50 to 100 | 50 to 100
CC(=O)Nc1cc(NC(=O)c2cc(NC(=O)[C@H]3[C@H](c4ccc(F)c(C(F)(F)F)c4)C3(Cl)Cl)cc(C)c2Cl)c(F)cc1F [F1548, N-(5-Acetamido-2,4-difluorophenyl)-2-chloro-5-((1R,3R)-2,2-dichloro-3-(4-fluoro-3-(trifluoromethyl)phenyl)cyclopropane-1-carboxamido)-3-methylbenzamide] | 50 to 100 | 50 to 100
CNc1c(F)ccc(NC(=O)c2cc(NC(=O)[C@H]3[C@H](c4ccc(Cl)c(Cl)c4)C3(Cl)Cl)ccc2Cl)c1F [F1550, 2-Chloro-5-((1R,3R)-2,2-dichloro-3-(3,4-dichlorophenyl)cyclopropane-1-carboxamido)-N-(2,4-difluoro-3-(methylamino)phenyl)benzamide] | 50 to 100 | 50 to 100
O=C(Nc1c(F)ccc(NC(=O)C(F)(F)C(F)F)c1F)c1cc(NC(=O)[C@H]2[C@H](c3ccc(F)c(C(F)(F)F)c3)C2(Cl)Cl)ccc1Cl [F1564, 2-Chloro-5-((1R,3R)-2,2-dichloro-3-(4-fluoro-3-(trifluoromethyl)phenyl)cyclopropane-1-carboxamido)-N-(2,6-difluoro-3-(2,2,3,3-tetrafluoropropanamido)phenyl)benzamide] | 50 to 100 | 50 to 100
O=C(Nc1cc(NC(=O)C(F)(F)C(F)F)c(F)cc1F)c1cc(NC(=O)[C@H]2[C@H](c3ccc(Cl)c(Cl)c3)C2(Cl)Cl)ccc1Cl [F1565, 2-Chloro-5-((1R,3R)-2,2-dichloro-3-(3,4-dichlorophenyl)cyclopropane-1-carboxamido)-N-(2,4-difluoro-5-(2,2,3,3-tetrafluoropropanamido)phenyl)benzamide] | 50 to 100 | 50 to 100
Nc1cc(NC(=O)c2cc(NC(=O)[C@H]3[C@H](c4ccc(F)c(C(F)(F)F)c4)C3(Cl)Cl)ccc2Cl)c(F)cc1F [F1566, N-(5-Amino-2,4-difluorophenyl)-2-chloro-5-((1R,3R)-2,2-dichloro-3-(4-fluoro-3-(trifluoromethyl)phenyl)cyclopropane-1-carboxamido)benzamide] | 50 to 100 | 50 to 100
O=C(Nc1ccc(F)c(NC(=O)C(F)(F)C(F)F)c1F)c1cc(NC(=O)[C@H]2[C@H](c3cc(Cl)c(Cl)c(Cl)c3)C2(Cl)Cl)ccc1Cl [F1567, 2-Chloro-5-((1R,3R)-2,2-dichloro-3-(3,4,5-trichlorophenyl)cyclopropane-1-carboxamido)-N-(2,4-difluoro-3-(2,2,3,3-tetrafluoropropanamido)phenyl)benzamide] | 50 to 100 | 50 to 100
O=C(Nc1cc(NC(=O)C(F)(F)C(F)F)c(F)cc1F)c1cc(NC(=O)[C@H]2[C@H](c3cc(Cl)c(Cl)c(Cl)c3)C2(Cl)Cl)ccc1Cl [F1568, 2-Chloro-5-((1R,3R)-2,2-dichloro-3-(3,4,5-trichlorophenyl)cyclopropane-1-carboxamido)-N-(2,4-difluoro-5-(2,2,3,3-tetrafluoropropanamido)phenyl)benzamide] | 50 to 100 | 50 to 100
O=C(Nc1cc(NC(=O)C(F)(F)C(F)F)c(F)cc1F)c1cc(NC(=O)[C@H]2[C@H](c3ccc(F)c(C(F)(F)F)c3)C2(Cl)Cl)ccc1Cl [F1569, 2-Chloro-5-((1R,3R)-2,2-dichloro-3-(4-fluoro-3-(trifluoromethyl)phenyl)cyclopropane-1-carboxamido)-N-(2,4-difluoro-5-(2,2,3,3-tetrafluoropropanamido)phenyl)benzamide] | 50 to 100 | 50 to 100
CC(=O)Nc1c(F)ccc(NC(=O)c2cc(NC(=O)[C@H]3[C@H](c4ccc(F)c(C(F)(F)F)c4)C3(Cl)Cl)cc(F)c2F)c1F [F1570, N-(3-Acetamido-2,4-difluorophenyl)-5-((1R,3R)-2,2-dichloro-3-(4-fluoro-3-(trifluoromethyl)phenyl)cyclopropane-1-carboxamido)-2,3-difluorobenzamide] | 50 to 100 | 50 to 100
O=C(Nc1ccc(F)c(NC(=O)C(F)F)c1F)c1cc(NC(=O)[C@H]2[C@H](c3ccc(F)c(C(F)(F)F)c3)C2(Cl)Cl)cc(F)c1F [F1571, 5-((1R,3R)-2,2-Dichloro-3-(4-fluoro-3-(trifluoromethyl)phenyl)cyclopropane-1-carboxamido)-N-(3-(2,2-difluoroacetamido)-2,4-difluorophenyl)-2,3-difluorobenzamide] | 50 to 100 | 50 to 100
O=C(Nc1ccc(F)c(NC(=O)C(F)(F)F)c1F)c1cc(NC(=O)[C@H]2[C@H](c3ccc(F)c(C(F)(F)F)c3)C2(Cl)Cl)cc(F)c1F [F1572, 5-((1R,3R)-2,2-Dichloro-3-(4-fluoro-3-(trifluoromethyl)phenyl)cyclopropane-1-carboxamido)-N-(2,4-difluoro-3-(2,2,2-trifluoroacetamido)phenyl)-2,3-difluorobenzamide] | 50 to 100 | 50 to 100
O=C(Nc1c(F)ccc(NC(=O)C(F)F)c1F)c1cc(NC(=O)[C@H]2[C@H](c3ccc(F)c(C(F)(F)F)c3)C2(Cl)Cl)cc(F)c1F [F1573, 5-((1R,3R)-2,2-Dichloro-3-(4-fluoro-3-(trifluoromethyl)phenyl)cyclopropane-1-carboxamido)-N-(3-(2,2-difluoroacetamido)-2,6-difluorophenyl)-2,3-difluorobenzamide] | 50 to 100 | 50 to 100
O=C(Nc1c(F)ccc(NC(=O)C(F)(F)F)c1F)c1cc(NC(=O)[C@H]2[C@H](c3ccc(F)c(C(F)(F)F)c3)C2(Cl)Cl)cc(F)c1F [F1574, 5-((1R,3R)-2,2-Dichloro-3-(4-fluoro-3-(trifluoromethyl)phenyl)cyclopropane-1-carboxamido)-N-(2,6-difluoro-3-(2,2,2-trifluoroacetamido)phenyl)-2,3-difluorobenzamide] | 50 to 100 | 50 to 100
CC(=O)Nc1ccc(F)c(NC(=O)c2cc(NC(=O)[C@H]3[C@H](c4ccc(Cl)c(Cl)c4)C3(Cl)Cl)cc(F)c2F)c1F [F1575, N-(3-Acetamido-2,6-difluorophenyl)-5-((1R,3R)-2,2-dichloro-3-(3,4-dichlorophenyl)cyclopropane-1-carboxamido)-2,3-difluorobenzamide] | 50 to 100 | 50 to 100
CC(=O)Nc1ccc(F)c(NC(=O)c2cc(NC(=O)[C@H]3[C@H](c4ccc(F)c(C(F)(F)F)c4)C3(Cl)Cl)cc(F)c2F)c1F [F1576, N-(3-Acetamido-2,6-difluorophenyl)-5-((1R,3R)-2,2-dichloro-3-(4-fluoro-3-(trifluoromethyl)phenyl)cyclopropane-1-carboxamido)-2,3-difluorobenzamide] | 50 to 100 | 50 to 100
O=C(Nc1c(F)ccc(NC(=O)C(F)F)c1F)c1cc(NC(=O)[C@H]2[C@H](c3ccc(Cl)c(Cl)c3)C2(Cl)Cl)cc(F)c1F [F1577, 5-((1R,3R)-2,2-Dichloro-3-(3,4-dichlorophenyl)cyclopropane-1-carboxamido)-N-(3-(2,2-difluoroacetamido)-2,6-difluorophenyl)-2,3-difluorobenzamide] | 50 to 100 | 50 to 100
O=C(Nc1c(F)ccc(NC(=O)C(F)(F)F)c1F)c1cc(NC(=O)[C@H]2[C@H](c3ccc(Cl)c(Cl)c3)C2(Cl)Cl)cc(F)c1F [F1578, 5-((1R,3R)-2,2-Dichloro-3-(3,4-dichlorophenyl)cyclopropane-1-carboxamido)-N-(2,6-difluoro-3-(2,2,2-trifluoroacetamido)phenyl)-2,3-difluorobenzamide] | 50 to 100 | 50 to 100
O=C(Nc1cc(NC(=O)C(F)(F)F)c(F)cc1F)c1cc(NC(=O)[C@H]2[C@H](c3cc(Cl)c(Cl)c(Cl)c3)C2(Cl)Cl)cc(F)c1F [F1579, 5-((1R,3R)-2,2-Dichloro-3-(3,4,5-trichlorophenyl)cyclopropane-1-carboxamido)-N-(2,4-difluoro-5-(2,2,2-trifluoroacetamido)phenyl)-2,3-difluorobenzamide] | 50 to 100 | 50 to 100
